Test results as given in ChEMBL document CHEMBL1201862, “PubChem BioAssay data set” (2004).
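Protocol summary: plate cells (96-well), add compound at 5 concentrations, incubate 48 h, interpolate endpoints linearly. Abbreviation: GI50, concentration required for 50% inhibition of growth.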 Activity calls are given as the source filed them. Cut-off read from the data, not from the text of the source: active = GI50 up to about 1.1 µM and inactive = higher.

What was measured:
Experiment in all cases: inhibition of tumour cell growth, NCI panel, 48 h
[1] = test system: T47D
[2] = test system: NCI/ADR-RES
[3] = test system: OVCAR-5
[4] = test system: HOP-62
[5] = test system: KM12
[6] = test system: TK-10
[7] = test system: NCI-H522
[8] = test system: CCRF-CEM
[9] = test system: NCI-H226
[10] = test system: SF-539
[11] = test system: U-251
[12] = test system: LOX IMVI
[13] = test system: ACHN
[14] = test system: SF-268
[15] = test system: RPMI-8226
[16] = test system: 786-0
[17] = test system: MDA-N
[18] = test system: HCT-116
[19] = test system: SK-MEL-28
[20] = test system: SK-MEL-5

| Structure (SMILES) | GI50 [1] | GI50 [2] | GI50 [3] | GI50 [4] | GI50 [5] | GI50 [6] | GI50 [7] | GI50 [8] | GI50 [9] | GI50 [10] | GI50 [11] | GI50 [12] | GI50 [13] | GI50 [14] | GI50 [15] | GI50 [16] | GI50 [17] | GI50 [18] | GI50 [19] | GI50 [20] |
| --- | --- | --- | --- | --- | --- | --- | --- | --- | --- | --- | --- | --- | --- | --- | --- | --- | --- | --- | --- | --- |
| O=c1c(-c2ccc(O)cc2)coc2cc(OC3OC(CO)C(O)C(O)C3O)cc(O)c12 (stereo unspecified) | > 10 µM (inactive) | > 10 µM (inactive) | > 10 µM (inactive) | > 10 µM (inactive) | > 100 µM (inactive) | 33 µM (inactive) | 45.7 µM (inactive) | 38.8 µM (inactive) | > 100 µM (inactive) | 31.1 µM (inactive) | > 10 µM (inactive) | 79.8 µM (inactive) | 54.5 µM (inactive) | 41.7 µM (inactive) | 51.8 µM (inactive) | 75.5 µM (inactive) | > 100 µM (inactive) | > 100 µM (inactive) | > 10 µM (inactive) | > 10 µM (inactive) |
| CCCN(CCCCC(NC(C)=O)C(=O)NCc1ccccc1)C(=O)N(CCCl)N=O (stereo unspecified) | 78.9 µM (inactive) | 31.6 µM (inactive) | > 100 µM (inactive) | 25.5 µM (inactive) | > 100 µM (inactive) | > 100 µM (inactive) | > 82.2 µM (inactive) | 54.6 µM (inactive) | > 77.8 µM (inactive) | 8.55 µM (inactive) | 15.8 µM (inactive) | 22.9 µM (inactive) | 25.8 µM (inactive) | 9.46 µM (inactive) | 98.2 µM (inactive) | 2.33 µM (inactive) | > 100 µM (inactive) | 60.3 µM (inactive) | > 100 µM (inactive) | > 77.8 µM (inactive) |
| C=C1C(=O)O[C@@H]2[C@H]1C[C@H](I)[C@@]1(C)CC[C@H](O1)[C@](C)(I)CCCC(C)[C@@H]2O (stereo partly specified) | 3.79 µM (inactive) | 3.17 µM (inactive) | 8.69 µM (inactive) | 19.4 µM (inactive) | 9.04 µM (inactive) | 1.75 µM (inactive) | 0.311 µM (active) | 0.384 µM (active) | 1.91 µM (inactive) | 2.02 µM (inactive) | 6.07 µM (inactive) | 1.32 µM (inactive) | 1.79 µM (inactive) | 12.6 µM (inactive) | 2.61 µM (inactive) | 1.49 µM (inactive) | 2.7 µM (inactive) | 2.88 µM (inactive) | 6.11 µM (inactive) | 3.29 µM (inactive) |
| O=C1Oc2ccccc2C1C/C(=N\Nc1ccccc1)c1ccccc1O (stereo unspecified) | 11.3 µM (inactive) | 20.8 µM (inactive) | > 100 µM (inactive) | 53.3 µM (inactive) | 7.46 µM (inactive) | 48.9 µM (inactive) | 38.2 µM (inactive) | 62.1 µM (inactive) | 28.8 µM (inactive) | 53 µM (inactive) | 40.3 µM (inactive) | 11.5 µM (inactive) | 16.6 µM (inactive) | 25.7 µM (inactive) | 45.2 µM (inactive) | 36.1 µM (inactive) | 44.5 µM (inactive) | 28.4 µM (inactive) | 33.7 µM (inactive) | 33.9 µM (inactive) |
| O=C1Nc2ccccc2C(=O)/C1=C/NC(=S)NC1CCCCC1 | > 100 µM (inactive) | > 100 µM (inactive) | > 100 µM (inactive) | > 100 µM (inactive) | > 100 µM (inactive) | > 100 µM (inactive) | > 100 µM (inactive) | > 100 µM (inactive) | > 100 µM (inactive) | > 100 µM (inactive) | > 100 µM (inactive) | > 100 µM (inactive) | > 100 µM (inactive) | > 100 µM (inactive) | > 100 µM (inactive) | > 100 µM (inactive) | > 100 µM (inactive) | > 100 µM (inactive) |  | > 100 µM (inactive) |
| CCOC(=O)CN1C(=O)C(=O)N(c2ccc(OC)c3ccccc23)C1=O | > 100 µM (inactive) | > 100 µM (inactive) | > 100 µM (inactive) | 68.5 µM (inactive) | > 100 µM (inactive) | > 100 µM (inactive) | > 100 µM (inactive) | > 100 µM (inactive) | 45.1 µM (inactive) | > 100 µM (inactive) | > 100 µM (inactive) | > 100 µM (inactive) | > 100 µM (inactive) | > 100 µM (inactive) | > 100 µM (inactive) | > 100 µM (inactive) | > 100 µM (inactive) | > 100 µM (inactive) | > 100 µM (inactive) | > 100 µM (inactive) |
| N#CC1=C(N)OC2=C(CCCc3ccc([N+](=O)[O-])cc32)C1c1ccc(Cl)cc1 (stereo unspecified) | 3.78 µM (inactive) | 6.28 µM (inactive) | 16.6 µM (inactive) | 19.7 µM (inactive) | 5.58 µM (inactive) | 10.6 µM (inactive) | 6.41 µM (inactive) | 4.39 µM (inactive) | 17 µM (inactive) | 8.97 µM (inactive) | 4.57 µM (inactive) | 4.6 µM (inactive) | 4.59 µM (inactive) | 8.43 µM (inactive) | 4.33 µM (inactive) | 4.84 µM (inactive) | 6.7 µM (inactive) | 3.3 µM (inactive) | 25.8 µM (inactive) | 4.38 µM (inactive) |
| C#CCOC(=O)C(N)CCCNC(=N)N (stereo unspecified) | > 100 µM (inactive) | > 100 µM (inactive) | > 100 µM (inactive) | > 100 µM (inactive) | > 100 µM (inactive) | > 100 µM (inactive) | > 100 µM (inactive) | > 100 µM (inactive) | > 100 µM (inactive) | > 100 µM (inactive) | > 100 µM (inactive) | > 100 µM (inactive) | > 100 µM (inactive) | > 100 µM (inactive) | > 100 µM (inactive) | > 100 µM (inactive) | > 100 µM (inactive) | > 100 µM (inactive) | > 100 µM (inactive) | > 100 µM (inactive) |
| C/C(=C\CNc1nc(Cl)nc2[nH]cnc12)CO | > 100 µM (inactive) | > 100 µM (inactive) | > 100 µM (inactive) | > 100 µM (inactive) | > 100 µM (inactive) | > 100 µM (inactive) | > 100 µM (inactive) | > 100 µM (inactive) | > 100 µM (inactive) | > 100 µM (inactive) |  | > 100 µM (inactive) | > 100 µM (inactive) | > 100 µM (inactive) | > 100 µM (inactive) | > 100 µM (inactive) | > 100 µM (inactive) | > 100 µM (inactive) | > 100 µM (inactive) | > 100 µM (inactive) |
| COc1cccc(-c2ccc3c4c2O[C@H]2C(=O)CC[C@@]5(O)[C@@H](C3)N(CC3CC3)CC[C@]425)c1 | 18.4 µM (inactive) | 19.4 µM (inactive) | 17.9 µM (inactive) | 19.5 µM (inactive) | 17.7 µM (inactive) | 17.3 µM (inactive) | 17.7 µM (inactive) | 7.29 µM (inactive) | 11.6 µM (inactive) | 14.7 µM (inactive) | 16.2 µM (inactive) | 16.3 µM (inactive) | 18.1 µM (inactive) | 20.8 µM (inactive) | 12.6 µM (inactive) | 16.1 µM (inactive) | 18.9 µM (inactive) | 17.5 µM (inactive) | 27.4 µM (inactive) | 14.8 µM (inactive) |
| COc1cc(OC2OC(CO)C(O)C(O)C2O)c2c(c1)O[C@@H]1[C@H](O)Oc3cc(OC)c(OC)cc3[C@]1(O)C2=O (stereo partly specified) | > 25 µM (inactive) | > 25 µM (inactive) | > 25 µM (inactive) | > 25 µM (inactive) | > 25 µM (inactive) | > 25 µM (inactive) | > 25 µM (inactive) | > 25 µM (inactive) | > 25 µM (inactive) | > 25 µM (inactive) | > 25 µM (inactive) | > 25 µM (inactive) | > 25 µM (inactive) | > 25 µM (inactive) | > 25 µM (inactive) | > 25 µM (inactive) | > 25 µM (inactive) | > 25 µM (inactive) | > 25 µM (inactive) | > 25 µM (inactive) |
| CCOC(=O)NN(C(=O)OCC)c1c(C)cc(C)cc1C | > 100 µM (inactive) | > 100 µM (inactive) | > 100 µM (inactive) |  | > 100 µM (inactive) | > 100 µM (inactive) | > 100 µM (inactive) | > 100 µM (inactive) | > 100 µM (inactive) | > 100 µM (inactive) | > 100 µM (inactive) | 95.3 µM (inactive) |  | > 100 µM (inactive) | > 100 µM (inactive) | > 100 µM (inactive) | > 100 µM (inactive) | > 100 µM (inactive) | > 100 µM (inactive) | > 100 µM (inactive) |
| c1ccc([B-]2(c3ccccc3)OCCc3cccc[n+]32)cc1 | 41 µM (inactive) | 59 µM (inactive) | > 100 µM (inactive) | > 100 µM (inactive) | 96.4 µM (inactive) | 54.3 µM (inactive) | 49.1 µM (inactive) | 23.4 µM (inactive) | 50.1 µM (inactive) | 28.5 µM (inactive) | > 100 µM (inactive) | 97.3 µM (inactive) | 37.9 µM (inactive) | 97.5 µM (inactive) | 65.3 µM (inactive) | 70.1 µM (inactive) | 50.2 µM (inactive) | 35 µM (inactive) | 47.8 µM (inactive) | 41.2 µM (inactive) |
| CC(=O)O[C@H]1C(=O)[C@@]2(C)[C@H]([C@H](OC(=O)c3ccccc3)[C@]3(O)C[C@H](OC(=O)[C@H](O)[C@@H](NC(=O)c4cccc(N=[N+]=[N-])c4)c4ccccc4)C(C)=C1C3(C)C)[C@]1(OC(C)=O)CO[C@@H]1C[C@@H]2O | 0.0338 µM (active) | 8.32 µM (inactive) | 0.00893 µM (active) | 0.00813 µM (active) | 0.0038 µM (active) | 0.117 µM (active) | 0.00307 µM (active) | 0.00331 µM (active) | 0.00855 µM (active) | < 0.0025 µM (active) | 0.00629 µM (active) | 0.00789 µM (active) | 0.327 µM (active) | 0.0289 µM (active) | < 0.0025 µM (active) | 0.0179 µM (active) | < 0.0025 µM (active) | < 0.0025 µM (active) | 0.425 µM (active) | 0.00507 µM (active) |
